# From EP0987275B1, “Molecules that home to a selected organ or tissue in vivo” (LA JOLLA CANCER RESEARCH FOUNDATION, priority 1995, dated 2008)
# Where no end group is shown, it is not given here.
# How the values were obtained:
# brain = test: In vivo panning of phage peptide display libraries, brain as the selected organ (kidney control); parameters: species or system mice; conditions: phage recovered from brain; for (% PHAGE): % of the 73 clones sequenced; for # PHAGE DISPLAYING SAME A.A. SEQUENCE: second and third rounds of in vivo panning, 73 cloned phage sequenced
# Experimental: Phage display libraries were constructed using the fuse 5 vector as described by Koivunen et al. (supra, 1995; see, also, Koivunen et al. Meth. Enzymol. 245:346-369 (1994b), which is incorporated herein by reference). Six libraries encoding peptides designated CX5C (SEQ ID NO: 36), CX6C (SEQ ID NO: 37), CX7C (SEQ ID NO: 38), CX9 (SEQ ID NO: 39), X2CX14CX2 (SEQ ID NO: 40) and X2CX18 (SEQ ID NO: 41) were prepared, where "C" indicates cysteine and "XN" indicates the given number of individually selected amino acids. These libraries can display cyclic peptides when at least two cysteine residues are present in the peptide.
# Oligonucleotides were constructed such that "C" was encoded by the codon TGT and "XN" was encoded by NNK, where "N" is equal molar mixtures of A, C, G and T, and where "K" is equal molar mixtures of G and T. Thus, the peptide represented by CX5C (SEQ ID NO: 36) can be represented by an oligonucleotide having the sequence TGT(NNK)5TGT (SEQ ID NO: 42). Oligonucleotides were made double stranded by 3 cycles of PCR amplification, purified and ligated to the nucleic acid encoding the gene III protein in the fuse 5 vector such that, upon expression, the peptide is present as a fusion protein at the N-terminus of the gene III protein.
# The vectors were transfected by electroporation into MC1061 cells. Bacteria were cultured for 24 hr in the presence of 20 µg/ml tetracycline, then phage were collected from the supernatant by precipitation twice using polyethylene glycol. Each library contained about 5 x 10^9 to 5 x 10^14 transducing units (TU; individual recombinant phage).
# (§1) A mixture of phage libraries containing 1 x 10^14 TU was diluted in 200 µl DMEM and injected into the tail vein of anesthetized BALB\c mice (2 month old females; Jackson Laboratories; Bar Harbor ME); Avertin™ (0.015 ml/g) was used as anesthetic (see Pasqualini and Ruoslahti, supra, 1996). After 1-4 minutes, mice were snap frozen in liquid nitrogen. To recover the phage, carcasses were partially thawed at room temperature for 1 hr, organs were collected and weighed, then were ground in 1 ml DMEM-PI (DMEM containing protease inhibitors (PI); phenylmethylsulfonyl fluoride (PMSF; 1 mM), aprotinin (20 µg/ml), leupeptin (1 µg/ml)).
# (§2) Organ samples were washed 3 times with ice cold DMEM-PI containing 1% bovine serum albumin (BSA), then directly incubated with 1 ml K91-kan bacteria for 1 hr. Ten ml NZY medium containing […] tetracycline (NZY/tet) was added to the bacterial culture, the mixture was incubated in a 37°C shaker for 1 hr, then 200 µl aliquots were plated in agar plates containing 40 µg/ml tetracycline (tet/agar).
# (§3) Individual colonies containing phage recovered from brain or kidney were grown for 16 hr in 5 ml NZY/tet. The bacterial cultures obtained from the individual colonies were pooled and the phage were purified and re-injected into mice as described above for a second round of in vivo panning. A third round of panning also was performed. Phage DNA was purified from individual bacterial colonies obtained from the second and the third round of in vivo panning and the DNA sequences encoding the peptides expressed by selected phage were determined (see Koivunen et al., supra, 1994b).
# Three rounds of in vivo panning in mice were performed. Kidney was used as a control organ. Mice were injected with two different mixtures of phage libraries. The first mixture contained libraries encoding CX9 (SEQ ID NO: 39), CX5C (SEQ ID NO: 36), CX6C (SEQ ID NO: 37) and CX7C (SEQ ID NO: 38) peptides (CX5-7/CX9 mixture; SEQ ID NOS: 36-39). The second mixture contained libraries encoding X2CX14CX2 (SEQ ID NO: 40) and X2CX18 (SEQ ID NO: 41) peptides (X2CX18/X2CX14CX2 mixture; SEQ ID NOS: 40 and 41).
# The phage library mixtures were administered to mice via tail vein injection. Phage input was […] of the CX5-7/CX9 (SEQ ID NOS: 36-39) mixture or 1 x 10^14 TU of the X2CX18/X2CX14CX2 (SEQ ID NOS: 40 and 41) mixture. […]
# kidney = test: In vivo panning of phage peptide display libraries, kidney as the selected organ (brain control); parameters: species or system mice; conditions: phage recovered from kidney; for (% PHAGE): % of the 48 clones sequenced; for # PHAGE DISPLAYING SAME A.A. SEQUENCE: 48 cloned phage sequenced
# Experimental: as §1, §2, §3
# The same methodology used to isolate phage expressing brain homing peptides was used to isolate phage expressing peptides that home to kidney. In these experiments, brain was used as the control organ. A mixture of the CX5C (SEQ ID NO: 36) and the CX6C (SEQ ID NO: 37) libraries was administered as described above. Homing of phage to the kidney was obtained and an approximately 3x to 7x enrichment of phage homing to kidney was observed following a second round of in vivo panning.
# The amino acid sequences were determined for the inserts in 48 cloned phage that homed to kidney. The peptides expressed by these phage were represented by two predominant sequences, CLPVASC (SEQ ID NO: 21; 46% of the clones sequenced) and CGAREMC (SEQ ID NO: 22; 17% of the clones; see Table 2). In addition, the peptide CKGRSSAC (SEQ ID NO: 23) appeared three times and three other peptides were present twice each.
# [1] = system: B16B15b mouse melanoma cells; test: In vivo panning in mice bearing an implanted mouse melanoma tumor; parameters: species or system nude mice; conditions: phage recovered from B16B15b tumors; 89 cloned phage sequenced
# Experimental: Mice bearing a melanoma were produced by implantation of B16B15b mouse melanoma cells, which produce highly vascularized tumors. B16B15b mouse melanoma cells were injected subcutaneously into the mammary fat pad of nude mice (2 months old) and tumors were allowed to grow until the diameter was about 1 cm. In vivo panning was performed as disclosed above. Approximately 1 x 10^12 transducing units of phage expressing the CX5C (SEQ ID NO: 36), CX6C (SEQ ID NO: 37) or […] library were injected, iv, and allowed to circulate for 4 min. Mice then were snap frozen in liquid nitrogen while under anesthesia, tumor tissue and brain (control organ) were removed, and phage were isolated as described above. Three rounds of in vivo panning were performed.
# The amino acid sequences were determined for the inserts in 89 cloned phage recovered from the B16B15b tumors. The peptides expressed by these phage were represented by two predominant sequences, CLSGSLSC (SEQ ID NO: 55; 52% of the clones sequenced) and WGTGLC (SEQ ID NO: 52; 25% of the clones; see Table 4).
Substance,(% PHAGE) (brain),# PHAGE DISPLAYING SAME A.A. SEQUENCE (brain),(% PHAGE) (kidney),# PHAGE DISPLAYING SAME A.A. SEQUENCE (kidney),also measured
CANAQSHC (displayed on phage) [peptide from phage recovered from brain],1.4%,1,–,–,–
CETLPAC (displayed on phage) [peptide from phage recovered from brain],1.4%,1,–,–,–
CFVGHDLC (displayed on phage) [peptide from phage recovered from kidney],–,–,2.1%,1,–
CGNPSYRC (displayed on phage) [peptide from phage recovered from brain],1.4%,1,–,–,–
CGRSLDAC (displayed on phage) [peptide from phage recovered from brain],1.4%,1,–,–,–
CGVRLGC (displayed on phage) [peptide from phage recovered from brain],4.1%,3,–,–,–
CIEGVLGGC (cysteine pairing not given here; also: displayed on phage) [peptide from phage recovered from mouse B16B15b melanoma],–,–,–,–,# clones [1]: 2; % of total phage [1]: 2%
CKDWGRIC (displayed on phage) [peptide from phage recovered from brain],2.8%,2,–,–,–
CKLLSGVC (displayed on phage) [peptide from phage recovered from kidney],–,–,2.1%,1,–
CKLMGEC (displayed on phage) [peptide from phage recovered from kidney],–,–,2.1%,1,–
CLDWGRIC (displayed on phage) [peptide from phage recovered from brain],2.8%,2,–,–,–
CLGRSSVC (displayed on phage) [peptide from phage recovered from kidney],–,–,4.2%,2,–
CLMGVHC (displayed on phage) [peptide from phage recovered from kidney],–,–,2.1%,1,–
CMGRWRLC (displayed on phage) [peptide from phage recovered from kidney],–,–,2.1%,1,–
CNSRLQLRC (displayed on phage) [peptide from phage recovered from brain],5.5%,4,–,–,–
CRCLNVC (displayed on phage) [peptide from phage recovered from kidney],–,–,2.1%,1,–
CRHWFDVVC (displayed on phage) [peptide from phage recovered from brain],1.4%,1,–,–,–
CRRFQDC (displayed on phage) [peptide from phage recovered from kidney],–,–,2.1%,1,–
CRTGTLFC (displayed on phage) [peptide from phage recovered from brain],1.4%,1,–,–,–
CSSTMRC (cysteine pairing not given here; also: displayed on phage) [peptide from phage recovered from mouse B16B15b melanoma],–,–,–,–,# clones [1]: 2; % of total phage [1]: 2%
CSVANSC (cysteine pairing not given here; also: displayed on phage) [peptide from phage recovered from mouse B16B15b melanoma],–,–,–,–,# clones [1]: 3; % of total phage [1]: 3%
CTRITESC (displayed on phage) [peptide from phage recovered from brain],2.8%,2,–,–,–
CTSPGGSC (displayed on phage) [peptide from phage recovered from kidney],–,–,4.2%,2,–
CVAWLNC (displayed on phage) [peptide from phage recovered from kidney],–,–,2.1%,1,–
CVGECGGC (displayed on phage) [peptide from phage recovered from kidney],–,–,2.1%,1,–
CVLRGGRC (displayed on phage) [peptide from phage recovered from brain],6.8%,5,–,–,–
CWARAQGC (displayed on phage) [peptide from phage recovered from kidney],–,–,4.2%,2,–
LNCDYQGTNPATSVSVPCTV (displayed on phage) [peptide from phage recovered from brain],1.4%,1,–,–,–
WGTGLC (also: displayed on phage) [peptide from phage recovered from mouse B16B15b melanoma],–,–,–,–,# clones [1]: 22; % of total phage [1]: 25%
YPCGGEAVAGVSSVRTMCSE (displayed on phage) [peptide from phage recovered from brain],1.4%,1,–,–,–
